Measurements from PubChem BioAssay AID2060488 (Molecular Pharmacology Branch, DTP, NCI, 2025).

System: 966289-007-R4-J1-PDC complex spheroid viability
Test: Anticancer human tumor 966289-007-R4-J1-PDC patient-derived pancreatic adenocarcinoma cell line growth inhibition [GQUAD]
Conditions: for IC50: curve of first compound; for viability, T/C: stronger effect = lower value
Outline: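 Multi-cell-type spheroids of tumor cells with HUVEC and mesenchymal stem cells, treated with drug combinations. Concentrations descend in half-log steps from near clinical Cmax, or from 10 microM where Cmax is unknown; viability read-out.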
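Further: spheroids exposed to the agents for seven days before readout.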
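Wherever viability, T/C is given: percent viability relative to DMSO vehicle control wells taken as 100%.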

Q: What does the source list for CCCS(=O)(=O)Nc1ccc(F)c(C(=O)c2c[nH]c3ncc(-c4ccc(Cl)cc4)cc23)c1F + CN(C)c1ccc(Nc2c3ccc(NC(=O)CCN4CCCC4)cc3nc3cc(NC(=O)CCN4CCCC4)ccc23)cc1?
A: IC50 (second compound 0.0316 µM): 7.34 µM; IC50 (second compound 0.1 µM): 7.34 µM; IC50 (second compound 0.316 µM): 7.41 µM; IC50 (second compound 1 µM): 6.87 µM; IC50 (second compound 3.16 µM): 5.67 µM; IC50 (second compound 10 µM): 2.03 µM; viability, T/C (second compound 0.0316 µM, first compound 0.0316 µM): 99.4%; viability, T/C (second compound 0.0316 µM, first compound 0.1 µM): 97.3%; viability, T/C (second compound 0.0316 µM, first compound 0.316 µM): 109%; viability, T/C (second compound 0.0316 µM, first compound 1 µM): 103%; viability, T/C (second compound 0.0316 µM, first compound 3.16 µM): 104%; viability, T/C (second compound 0.0316 µM, first compound 10 µM): 30.5%; viability, T/C (second compound 0.1 µM, first compound 0.0316 µM): 100%; viability, T/C (second compound 0.1 µM, first compound 0.1 µM): 101%; viability, T/C (second compound 0.1 µM, first compound 0.316 µM): 99.3%; viability, T/C (second compound 0.1 µM, first compound 1 µM): 102%; viability, T/C (second compound 0.1 µM, first compound 3.16 µM): 107%; viability, T/C (second compound 0.1 µM, first compound 10 µM): 30.8%; viability, T/C (second compound 0.316 µM, first compound 0.0316 µM): 100%; viability, T/C (second compound 0.316 µM, first compound 0.1 µM): 105%; viability, T/C (second compound 0.316 µM, first compound 0.316 µM): 103%; viability, T/C (second compound 0.316 µM, first compound 1 µM): 106%; viability, T/C (second compound 0.316 µM, first compound 3.16 µM): 102%; viability, T/C (second compound 0.316 µM, first compound 10 µM): 31.8%; viability, T/C (second compound 1 µM, first compound 0.0316 µM): 92.2%; viability, T/C (second compound 1 µM, first compound 0.1 µM): 104%; viability, T/C (second compound 1 µM, first compound 0.316 µM): 109%; viability, T/C (second compound 1 µM, first compound 1 µM): 108%; viability, T/C (second compound 1 µM, first compound 3.16 µM): 103%; viability, T/C (second compound 1 µM, first compound 10 µM): 24.4%; viability, T/C (second compound 3.16 µM, first compound 0.0316 µM): 99.8%; viability, T/C (second compound 3.16 µM, first compound 0.1 µM): 99.9%; viability, T/C (second compound 3.16 µM, first compound 0.316 µM): 110%; viability, T/C (second compound 3.16 µM, first compound 1 µM): 104%; viability, T/C (second compound 3.16 µM, first compound 3.16 µM): 93.4%; viability, T/C (second compound 3.16 µM, first compound 10 µM): 7.98%; viability, T/C (second compound 10 µM, first compound 0.0316 µM): 103%; viability, T/C (second compound 10 µM, first compound 0.1 µM): 102%; viability, T/C (second compound 10 µM, first compound 0.316 µM): 106%; viability, T/C (second compound 10 µM, first compound 1 µM): 103%; viability, T/C (second compound 10 µM, first compound 3.16 µM): 17.2%; viability, T/C (second compound 10 µM, first compound 10 µM): 0.53%
